These results are taken from patent US11419916B2, “Methods and compositions for inducing differentiation of human brown adipocyte progenitors” (Energesis Pharmaceuticals, Inc., priority 2014, dated 2022).

To fix the notation:
B1: FGF7: fibroblast growth factor-7, keratinocyte growth factor (protein, UniProt P21781 32-194, looked up)
Fibroblast growth factor 7: CNDMTPEQMATNVNCSSPERHTRSYDYMEGGDIRVRRLFCRTQWYLRIDKRGKVKGTQEMKNNYNIMEIRTVAVGIVAIKGVESEFYLAMNKEGKLYAKKECNEDCNFKELILENHYNTYASAKWTHNGGEMFVALNQKGIPVRGKKTKKEQKTAHFLPMAIT
B2: FGF13: fibroblast growth factor-13 (protein, UniProt Q92913 1-245, looked up)
Fibroblast growth factor 13: MAAAIASSLIRQKRQAREREKSNACKCVSSPSKGKTSCDKNKLNVFSRVKLFGSKKRRRRRPEPQLKGIVTKLYSRQGYHLQLQADGTIDGTKDEDSTYTLFNLIPVGLRVVAIQGVQTKLYLAMNSEGYLYTSELFTPECKFKESVFENYYVTYSSMIYRQQQSGRGWYLGLNKEGEIMKGNHVKKNKPAAHFLPKPLKVAMYKEPSLHDLTEFSRSGSGTPTKSRSVSGVLNGGKSMSHNEST
B3: BDNF: brain-derived neurotrophic factor (protein, UniProt P23560 19-247, looked up)
Neurotrophic factor BDNF …: APMKEANIRGQGGLAYPGVRTHGTLESVNGPKAGSRGLTSLADTFEHVIEELLDEDQKVRPNEENNKDADLYTSRVMLSSQVPLEPPLLFLLEEYKNYLDAANMSMRVRRHSDPARRGELSVCDSISEWVTAADKKTAVDMSGGTVTVLEKVPVSKGQLKQYFYETKCNPMGYTKEGCRGIDKRHWNSQCRTTQSYVRALTMDSKKRIGWRFIRIDTSCVCTLTIKRGR
B4: CNTF: ciliary neurotrophic factor (protein, UniProt P26441 1-200, looked up)
Ciliary neurotrophic factor: MAFTEHSPLTPHRRDLCSRSIWLARKIRSDLTALTESYVKHQGLNKNINLDSADGMPVASTDQWSELTEAERLQENLQAYRTFHVLLARLLEDQQVHFTPTEGDFHQAIHTLLLQVAAFAYQIEELMILLEYKIPRNEADGMPINVGDGGLFEKKLWGLKVLQELSQWTVRSIHDLRFISSHQTGIPARGSHYIANNKKM
B5: FGF10: fibroblast growth factor-10, keratinocyte growth factor-2 (protein, UniProt O15520 38-208, looked up)
Fibroblast growth factor 10: QALGQDMVSPEATNSSSSSFSSPSSAGRHVRSYNHLQGDVRWRKLFSFTKYFLKIEKNGKVSGTKKENCPYSILEITSVEIGVVAVKAINSNYYLAMNKKGKLYGSKEFNNDCKLKERIEENGYNTYASFNWQHNGRQMYVALNGKGAPRRGQKTRRKNTSAHFLPMVVHS

Where a name gives a salt, the structure may show the parent alone.

In the first test the test system is CD31-cells (brown adipocyte progenitors). As to the kind of experiment: Quantification of UCP1 protein by immunohistochemistry (IHC). The test is classed as cell-based, human. The settings on record: total intensity of UCP1 signal normalized to cell number. The method, then:
Differentiation of brown adipocyte progenitors into brown adipocytes can be detected through quantification of UCP1 protein by immunohistochemistry (IHC).
Culturing and differentiation of CD31-cells into brown adipocytes were performed using adipogenic differentiation medium lacking (Minimal Differentiation Medium, MDM) or containing 1 μM rosiglitazone (Reference Differentiation Medium, RDM). After 15 days of differentiation cells were fixed with 4% Paraformaldehyde PBS pH 7.4, and incubated with a UCP1 antibody (Abcam ab23841) and Alexafluor 488 goat anti-rabbit antibody to quantify relative UCP1 levels (green) according to standard protocols. Prior to fixation of cells, nuclei were labeled with 5 μM DAPI (blue) for 10 minutes. Each treatment condition was evaluated in triplicate in a 96-well plate corresponding to approximately 360-480 cells for each data point in total. The InCell 1000 Developer Toolbox software was used to develop an automated cell detection script to measure UCP1 signal intensity, using the nuclei and cytoplasm detection algorithms. As a readout, total intensity of UCP1 signal within the cell was used, normalized to cell number.
Regarding `COc1cc2c(c(OC)c1OC)-c1ccc(OC)c(=O)cc1[C@@H](NC(C)=O)CC2` [Colchicine], the “UCP1 protein signal (IHC), differentiation of brown adipocyte progenitors into brown adipocytes” value is recorded as “identified using this technique”.

For `NC(N)=Nc1nc(CSCCC(N)=NS(N)(=O)=O)cs1` [Famotidine], the “UCP1 protein signal (IHC), differentiation of brown adipocyte progenitors into brown adipocytes” value was “identified using this technique”.

Take `N=C(N)NC(=O)Cc1c(Cl)cccc1Cl` [Guanfacine hydrochloride]: the “UCP1 protein signal (IHC), differentiation of brown adipocyte progenitors into brown adipocytes” value is given as “identified using this technique”.

Consider `CN(C)C(=N)N=C(N)N` [Metformin], for which the “UCP1 protein signal (IHC), differentiation of brown adipocyte progenitors into brown adipocytes” value is “identified using this technique”.

As to `COC(=O)[C@H]1[C@H]2C[C@@H]3c4[nH]c5cc(OC)ccc5c4CCN3C[C@H]2C[C@@H](OC(=O)c2cc(OC)c(OC)c(OC)c2)[C@@H]1OC` [Reserpine], the “UCP1 protein signal (IHC), differentiation of brown adipocyte progenitors into brown adipocytes” value is “identified using this technique”.

As for `O=C(CCCN1CCC2(CC1)C(=O)NCN2c1ccccc1)c1ccc(F)cc1` [Spiperone], the “UCP1 protein signal (IHC), differentiation of brown adipocyte progenitors into brown adipocytes” value is “identified using this technique”.

Turning to `CCSc1ccc2c(c1)N(CCCN1CCN(C)CC1)c1ccccc1S2` [Thiethylperazine], the “UCP1 protein signal (IHC), differentiation of brown adipocyte progenitors into brown adipocytes” value is “identified using this technique”.

The subject of a further test is CD31-cells (BAT progenitor cells isolated from human skeletal muscle). The experiment in a line: Quantification of UCP1 and PPARγ2 mRNA (normalized to cyclophilin A) by multiplexed TaqMan real-time PCR to quantify differentiation into brown adipocytes. The test is classed as cell-based.
Conditions: not given
The text has this: A robust method, previously disclosed in WO2013071063 and incorporated herein by reference, was used for detection of CD31-cell differentiation into brown adipocytes by simultaneously quantifying mRNA species corresponding to the brown adipocyte marker UCP1, the adipocyte marker PPARγ2, and the “housekeeping” gene cyclophilin A which was used as the internal control.
This method permits analysis of a large number of samples to identify agents that enhance the differentiation of CD31-cells into brown adipocytes. When differentiated into brown adipocytes CD31-cells express much higher levels of UCP1 and PPARγ2 mRNA for a given level of cyclophilin A. UCP1 and PPARγ2 mRNA levels normalized to cyclophilin A mRNA levels give an indication of the level of differentiation of the CD31-cells into brown adipocytes, independent of the total number of cells in the sample.
Quantification of UCP1, PPARγ2 and cyclophilin A mRNA by multiplexed TaqMan real-time PCR was thus used to quantify differentiation of the CD31-cells into brown adipocytes.
Cells were seeded at 10,000 per cm^2 in 0.2% gelatin coated plates (48-well tissue culture, Chemglass #CLS-3500-048), cultured until confluency (2-4 days) at 37° C. in Endothelial cell growth medium-2 (EGM2) (BulletKit growth medium, Lonza #CC-3162) and until differentiation (10-16 more days). After 2 or 3 days in EGM2 medium the cells were induced to differentiate by replacing the medium with an adipogenic medium, which is a modification of the adipogenic medium described by Rodriguez et al. and may or may not contain a differentiation inducing agent (e.g., PPARγ agonist). […] If rosiglitazone is used as a differentiation-inducing agent, it can be supplied at 1 μM or any other concentration sufficient to induce differentiation of BAT progenitor cells into adipocytes.
Total RNA was prepared from cells using PureLink RNA Isolation Kit (Invitrogen #12183-016) First strand cDNA were synthesized using the High Capacity cDNA Reverse Transcription kit (Applied Biosystems, Foster City, Calif.) and random primers.
Quantitative real-time PCR was performed using an Applied Biosystems StepOnePlus™ instrument, TaqMan Gene Expression Master Mix (Applied Biosystems #4369016), and custom TaqMan gene expression probes and primers for human uncoupling protein-1 “UCP1” (GenBank NM_021833) and for human peptidylprolyl isomerase A “cyclophilin A” (GenBank NM_021130).
Cyclophilin A was used as a control to account for any variations due to the efficiency of reverse transcription. Arbitrary units were determined by normalizing target mRNA levels to cyclophilin A mRNA levels (based on Cts).
For orientation: Quantitative PCR measures a nucleic acid by following its amplification.
Take `CCCCC[C@H](O)/C=C/[C@@H]1[C@@H](C/C=C\CCCC(=O)O)[C@H](O)C[C@H]1O` [9β,11α-prostaglandin F2]: the “differentiation of BAT progenitor cells into brown adipocytes and/or expression of UCP1, PPARγ2 mRNA” value (“differentiation … PPARγ2 mRNA” below) is recorded as “promote the differentiation of BAT progenitor cells into brown adipocytes and/or induce the expression of UCP1”.

Take `O=C1NC(c2cccc([N+](=O)[O-])c2)=CCN1c1ccccc1O` [icilin]: the “differentiation … PPARγ2 mRNA” value was “promote the differentiation of BAT progenitor cells into brown adipocytes and/or induce the expression of UCP1”.

Take `CC1CCC(C(C)C)C(O)C1` (stereo not drawn) [menthol]: the “differentiation … PPARγ2 mRNA” value is “promote the differentiation of BAT progenitor cells into brown adipocytes and/or induce the expression of UCP1”.

In the case of `CC1(C)CC[C@]2(C(=O)O)CC[C@]3(C)C(=CC[C@@H]4[C@@]5(C)CC[C@H](O)C(C)(C)[C@@H]5CC[C@]43C)[C@@H]2C1` [oleanolic acid], the “differentiation … PPARγ2 mRNA” value is recorded as “promote the differentiation of BAT progenitor cells into brown adipocytes and/or induce the expression of UCP1”.

On to `COC(=O)N(C)c1c(N)nc(-c2nn(Cc3ccccc3F)c3ncccc23)nc1N` [riociguat], for which the “differentiation … PPARγ2 mRNA” value is given as “promote the differentiation of BAT progenitor cells into brown adipocytes and/or induce the expression of UCP1”.

As to `COc1ccc(C2CNC(=O)C2)cc1OC1CCCC1` (stereo not drawn) [rolipram], the “differentiation … PPARγ2 mRNA” value is listed as “promote the differentiation of BAT progenitor cells into brown adipocytes and/or induce the expression of UCP1”.

Take `CN/C(=N\c1ccc(C2=NNC(=O)CC2C)cc1)NC#N` (stereo not drawn) [siguazodan]: the “differentiation … PPARγ2 mRNA” value is recorded as “promote the differentiation of BAT progenitor cells into brown adipocytes and/or induce the expression of UCP1”.

As for BNP: b-type natriuretic peptide, the “differentiation … PPARγ2 mRNA” value was “promote the differentiation of BAT progenitor cells into brown adipocytes and/or induce the expression of UCP1”.

For “PACAP Propeptide of 55 aa (aa 25-79): peptide derived from the Pituitary adenylate cyclase-activating polypeptide (PACAP, ADCYAP1, UniProt P18509) gene (SPAAAGLRFPGIRPEEEAYGEDGNPLPDFDGSEPPGAGSPASAPRAAAAWYRPAG; UniProt P18509 25-79, looked up, fragment)”, the “differentiation … PPARγ2 mRNA” value is recorded as “promote the differentiation of BAT progenitor cells into brown adipocytes and/or induce the expression of UCP1”.

On to bombesin, for which the “differentiation … PPARγ2 mRNA” value is reported as “promote the differentiation of BAT progenitor cells into brown adipocytes and/or induce the expression of UCP1”.

For “interleukin-6 (IL-6): Interleukin-6, UniProt P05231”, the “differentiation … PPARγ2 mRNA” value is “promote the differentiation of BAT progenitor cells into brown adipocytes and/or induce the expression of UCP1”.

Consider orexin B: orexin B, for which the “differentiation … PPARγ2 mRNA” value is given as “promote the differentiation of BAT progenitor cells into brown adipocytes and/or induce the expression of UCP1”.

On to B1, for which the “differentiation … PPARγ2 mRNA” value is recorded as “promote the differentiation of BAT progenitor cells into brown adipocytes and/or induce the expression of UCP1”.

On to B2, for which the “differentiation … PPARγ2 mRNA” value is “promote the differentiation of BAT progenitor cells into brown adipocytes and/or induce the expression of UCP1”.

On to B3, for which the “differentiation … PPARγ2 mRNA” value was “promote the differentiation of BAT progenitor cells into brown adipocytes and/or induce the expression of UCP1”.

In the case of B4, the “differentiation … PPARγ2 mRNA” value was “promote the differentiation of BAT progenitor cells into brown adipocytes and/or induce the expression of UCP1”.

For the molecule B5, the “differentiation … PPARγ2 mRNA” value was “promote the differentiation of BAT progenitor cells into brown adipocytes and/or induce the expression of UCP1”.
